Laboratory results from US20260354380A1, “PYRAZOLO PESTICIDAL COMPOUNDS” (BASF SE, priority 2022, published 2026).

Tests used:
Format in all cases: in vivo
Anthonomus grandis = experiment: Action on Boll Weevil (Anthonomus grandis); details: 800 ppm; egg and larval mortality; 5 days
Procedure, shortened: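 Diet in 96-well plates, seeded with 5-10 A. grandis eggs, received a spray of formulated compound (25% DMSO in water) at a range of concentrations, duplicated. Mortality of eggs and larvae was judged by eye after 5 days at about 25±1 °C, 75±5% relative humidity.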

Heliothis virescens = experiment: Action on Tobacco Budworm (Heliothis virescens); details: 800 ppm; egg and larval mortality; 5 days
Procedure, shortened: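 Eggs (15-25 per well) on diet were held 5 days at about 28±1 °C, 80±5% RH, then egg and larval mortality was scored by eye. Beforehand the diet had been sprayed with compound dilutions formulated in water/DMSO 75:25 v/v, in two replicates.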

Spodoptera eridania = experiment: Action on Southern Armyworm (Spodoptera eridania), 2nd Instar Larvae; details: 300 ppm; 2nd instar larvae; 4 days after treatment
Procedure, shortened: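 2nd-instar Spodoptera eridania larvae (about 10–11 per pot) confined on sprayed, dried Lima bean plants (1st true leaf stage) in sealed bags. Spray solutions: acetone/water 1:1 plus 0.01% surfactant. Held 4 days near 25 °C, 20–40% RH; assessed for mortality and feeding reduction against untreated controls.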

Plutella xylostella = experiment: Action on Diamond Back Moth (Plutella xylostella), microtiter plates, insect diet, eggs; details: 800 ppm; egg and larval mortality; 5 days
Description: Example B8: Action on Diamond Back Moth (Plutella xylostella)
For evaluating control of diamond back moth (Plutella xylostella) the test unit consisted of 96-well-microtiter plates containing an insect diet and 15-25 P. xylostella eggs. The compounds or mixtures were formulated using a solution containing 75% water and 25% DMSO. Different concentrations of formulated compounds or mixtures were sprayed onto the insect diet at 5 μl, using a custom-built micro atomizer, at two replications. For experimental mixtures in these tests identical volumes of both mixing partners at the desired concentrations respectively, were mixed together. After application, microtiter plates were incubated at 28±1 °C, 80±5% RH for 5 days. Egg and larval mortality was then visually assessed.

Aedes aegypti = experiment: whole plant or invertebrate; details: 800 ppm; larvae; 2 days
Procedure, shortened: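 Visual larval mortality was assessed 2 days after treatment (28±1 °C, 80±5% RH). Formulations of compounds or mixtures (75% water/25% DMSO) were applied by micro-atomizer onto diet of 5-15 newly hatched larvae per water-filled well, two replicates per concentration.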

Compound | mortality in comparison with untreated controls (Anthonomus grandis) | mortality in comparison with untreated controls (Heliothis virescens) | mortality in comparison with untreated controls (Spodoptera eridania) | mortality in comparison with untreated controls (Plutella xylostella) | mortality in comparison with untreated controls (Aedes aegypti)
Cc1ccc(C(C)C)c(N2C(=O)CS/C2=N\C(=O)Nc2ccc(-n3cc(NC(=O)c4ccc(Cl)cc4Cl)c(C)n3)cc2)c1 [Example C-27] | at least 75% | at least 75% | at least 75% | at least 75% | –
Cc1ccc(C(C)C)c(N2C(=O)CS/C2=N\C(=O)Nc2ccc(-n3cc(NC(=O)c4ccc(Cl)cc4)c(C)n3)cc2)c1 [Example C-29] | at least 75% | at least 75% | at least 75% | at least 75% | at least 50%
Cc1ccc(C(C)C)c(N2C(=O)CSC2=NC(=O)Nc2ccc(-n3cc(NC(=O)c4ccc(S(C)(=O)=O)cn4)c(C)n3)cc2)c1 [Example C-38] | at least 75% | at least 75% | at least 75% | at least 75% | –
Cc1ccc(C(C)C)c(N2C(=O)CSC2=NC(=O)Nc2ccc(-n3nc(C)c(NC(=O)c4ccc(OC(F)(F)F)cc4)c3C)c(Cl)c2)c1 [Example C-45] | at least 75% | at least 75% | at least 75% | at least 75% | at least 50%
Cc1ccc(C(C)C)c(N2C(=O)CSC2=NC(=O)Nc2ccc(-n3cc(NC(=O)c4ccc(OC(C)C)cc4)c(C)n3)cc2)c1 [Example C-48] | – | at least 75% | at least 75% | at least 75% | –
Cc1ccc(C(C)C)c(N2C(=O)CSC2=NC(=O)Nc2ccc(-n3cc(NC(=O)c4ccc(C5COC5)cc4)c(C)n3)cc2)c1 [Example C-52] | at least 75% | at least 75% | – | at least 75% | –
Cc1ccc(C(C)C)c(N2C(=O)CSC2=NC(=O)Nc2ccc(-n3cc(NC(=O)c4ccc([N+](=O)[O-])cc4)c(C)n3)cc2)c1 [Example C-54] | at least 75% | at least 75% | at least 75% | at least 75% | at least 50%
Cc1ccc(C(C)C)c(N2C(=O)CSC2=NC(=O)Nc2ccc(-n3cc(NC(=O)c4ccc(N=S(C)(C)=O)cc4)c(C)n3)cc2)c1 [Example C-55] | at least 75% | – | – | at least 75% | –
Cc1ccc(C(C)C)c(N2C(=O)CSC2=NC(=O)Nc2ccc(-n3cc(NC(=O)c4ccc(C(C)(C)C#N)cc4)c(C)n3)cc2)c1 [Example C-56] | – | at least 75% | at least 75% | at least 75% | –
Cc1ccc(C(C)C)c(N2C(=O)CSC2=NC(=O)Nc2ccc(-n3cc(NC(=O)c4ccc(S(C)(=O)=O)c(F)c4)c(C)n3)cc2)c1 [Example C-57] | – | at least 75% | – | at least 75% | –
Cc1ccc(C(C)C)c(N2C(=O)CSC2=NC(=O)Nc2ccc(-n3cc(NC(=O)c4ccc(C5CCC5)cc4)c(C)n3)cc2)c1 [Example C-58] | at least 75% | at least 75% | – | at least 75% | –
Cc1ccc(C(C)C)c(N2C(=O)CSC2=NC(=O)Nc2ccc(-n3cc(NC(=O)c4ccc(Cl)nc4)c(C)n3)cc2)c1 [Example C-66] | at least 75% | at least 75% | – | at least 75% | at least 50%
Cc1ccc(C(C)C)c(N2C(=O)CSC2=NC(=O)Nc2ccc(-n3cc(NC(=O)c4cncnc4)c(C)n3)cc2)c1 [Example C-68] | at least 75% | at least 75% | at least 75% | at least 75% | –
Cc1ccc(C(C)C)c(N2C(=O)CS/C2=N\C(=O)Nc2cc(Cl)c(-n3nc(C)c(NC(=O)c4ccc(OC(F)(F)F)cc4)c3C)cc2C)c1 [Example C-98] | at least 75% | at least 75% | at least 75% | at least 75% | at least 50%
Cc1ccc(C(C)C)c(N2C(=O)CS/C2=N\C(=O)Nc2cc(C)c(-n3nc(C)c(NC(=O)c4ccc(OC(F)(F)F)cc4)c3C)cc2Cl)c1 [Example C-99] | at least 75% | at least 75% | at least 75% | at least 75% | at least 50%
Cc1ccc(C(C)C)c(N2C(=O)CS/C2=N\C(=O)Nc2ccc(-n3nc(C)c(NC(=O)c4ccc(OC(F)(F)F)cc4)c3NCC3OCCO3)cc2)c1 [Example C-100] | at least 75% | at least 75% | at least 75% | at least 75% | at least 50%
Cc1ccc(C(C)C)c(N2C(=O)CS/C2=N\C(=O)Nc2ccc(-n3nc(C)c(NC(=O)c4ccc(OC(F)(F)F)cc4)c3N)cc2)c1 [Example C-101] | at least 75% | at least 75% | at least 75% | at least 75% | at least 50%
Cc1ccc(C(C)C)c(N2C(=O)CS/C2=N\C(=O)Nc2ccc(-n3nc(C)c(NC(=O)c4ccc(Cl)c(Cl)c4)c3C)cc2Cl)c1 [Example C-102] | at least 75% | at least 75% | at least 75% | at least 75% | at least 50%
CCN(C(=O)c1ccc(Cl)c(Cl)c1)c1c(C)nn(-c2ccc(NC(=O)/N=C3\SCC(=O)N3c3cc(C)ccc3C(C)C)c(Cl)c2)c1C [Example C-103] | at least 75% | at least 75% | at least 75% | at least 75% | at least 50%
Cc1ccc(C(C)C)c(N2C(=O)CS/C2=N\C(=O)Nc2c(C)cc(-n3nc(C)c(NC(=O)c4ccc(OC(F)(F)F)cc4)c3C)cc2Cl)c1 [Example C-105] | at least 75% | at least 75% | at least 75% | at least 75% | at least 50%
Cc1ccc(C(C)C)c(N2C(=O)CSC2=NC(=O)Nc2ccc(-n3nc(C)c(NC(=O)c4ccc(F)c(Cl)c4)c3C)cc2)c1 [Example C-113] | at least 75% | at least 75% | – | at least 75% | at least 50%
Cc1ccc(C(C)C)c(N2C(=O)CSC2=NC(=O)Nc2ccc(-n3nc(C)c(NC(=O)c4ccc(Br)c(C#N)c4)c3C)cc2)c1 [Example C-121] | at least 75% | – | at least 75% | at least 75% | at least 50%
Cc1ccc(C(C)C)c(N2C(=O)CSC2=NC(=O)Nc2ccc(-n3nc(C)c(NC(=O)c4ccc(C(Cl)Cl)cc4)c3C)cc2)c1 [Example C-122] | at least 75% | – | – | at least 75% | –
Cc1ccc(C(C)C)c(NC(=S)NC(=O)Nc2ccc(-n3cc(NC(=O)c4ccc(OC(F)(F)F)cc4)c(C)n3)cc2)c1 [Example C-127] | at least 75% | at least 75% | at least 75% | at least 75% | –
